Molecular target: T1, albumin (Homo sapiens, UniProt P02768)
T1 construct: commercial pooled healthy human plasma diluted to 55% by PBS; from tissue; host or cells: commercial pooled healthy human plasma
Experiment: Abundance of albumin in protein corona proteome by LC-MS/MS
Details: PtdChos 1000 μg/ml; plasma alone over 81%
Description: For protein corona formation in the presence of small molecules, commercial pooled healthy human plasma diluted to 55% by PBS was first incubated with the individual small molecules or a combination of small molecules at varying concentrations (i.e., 10, 100, and 1,000 μg/ml) for 1 hour at 37° C., allowing the small molecules to interact with the biological matrix. The small molecule combinations included each of the four small molecules (glucose, triacylglycerols, diacylglycerols, and PtdChos for combination 1; PE, PtdIns, IMP, and vitamin B complex for combination 2) at the given concentration. […]
Initial processing: NPs coated with protein corona were first washed with PBS and then resuspended in 30 μl of PBS, enriched with 15 mM phosphate (pH 7.4). The bound total protein content was estimated to be around 1 μg per sample, determined via a Micro BCA™ assay (Thermo Scientific™). […]
LC-MS/MS Analysis: Dried samples were reconstituted with 1 μg of peptides in 25 μl of liquid chromatography (LC) loading buffer (3% acetonitrile (ACN), 0.1% trifluoroacetic acid (TFA)) and analyzed using LC-MS/MS. A 60-minute gradient was applied in the label-free quantification (LFQ) mode, with 5 μl aliquots injected in triplicate. Control samples (55% human plasma) were prepared with 8 μg of peptides in 200 μl of loading buffer and analyzed similarly. […]

T1 sequence (P02768 25-609): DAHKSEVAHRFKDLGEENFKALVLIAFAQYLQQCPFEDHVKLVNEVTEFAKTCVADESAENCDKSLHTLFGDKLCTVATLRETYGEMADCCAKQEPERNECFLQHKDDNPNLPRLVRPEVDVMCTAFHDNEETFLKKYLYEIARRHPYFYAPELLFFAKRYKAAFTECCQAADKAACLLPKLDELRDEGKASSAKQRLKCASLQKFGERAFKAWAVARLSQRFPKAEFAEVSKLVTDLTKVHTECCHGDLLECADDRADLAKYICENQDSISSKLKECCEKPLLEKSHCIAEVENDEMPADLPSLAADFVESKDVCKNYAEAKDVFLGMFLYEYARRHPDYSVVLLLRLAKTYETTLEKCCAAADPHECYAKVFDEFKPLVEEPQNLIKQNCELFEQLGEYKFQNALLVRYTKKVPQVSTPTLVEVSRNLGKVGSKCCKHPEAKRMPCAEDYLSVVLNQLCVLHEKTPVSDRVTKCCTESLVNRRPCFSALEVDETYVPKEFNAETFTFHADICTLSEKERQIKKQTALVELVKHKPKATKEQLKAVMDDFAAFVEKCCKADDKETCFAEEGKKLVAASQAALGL

phosphatidylcholine [PtdChos]
albumin representation (share of proteins): around 17%
